Laboratory results as given in patent US11478471B2, “Methods and compositions for treating diabetes, metabolic syndrome and other conditions” (priority 2005, dated 2022).
Where two headings read alike, the source gives them in different places.

Assays:
[1] = system: Salmonella typhimurium; experiment: Ames assay; conditions: five histidine requiring strains
[2] = cited from earlier work; for AUC 0-12 / Cmax / T ½: humans
[3] = following fifth 200 mg dose of racemic ketoconazole (every twelve hours)
[4] = following first 200 mg dose of racemic ketoconazole
[5] = normal volunteers, 200 mg dose of the racemic mixture

CC(=O)N1CCN(c2ccc(OC[C@@H]3CO[C@@](Cn4ccnc4)(c4ccc(Cl)cc4Cl)O3)cc2)CC1 [DIO-902, 2S,4R cis-1-acetyl-4-[4-[[2-(2,4-dichlorophenyl)-2-(1H-imidazol-1-ylmethyl)-1,3-dioxolan-4-yl]methoxyl]phenyl]piperazine]
genotoxicity, Ames assay [1]: negative | AUC 0-12 [2, 3]: 538 ± 74 µg·min/mL | Cmax [2, 3]: 1530 ± 190 ng/mL | T ½ [2, 3]: 3.62 ± 0.5 h | AUC 0-12 [2, 4]: 302 ± 38 µg·min/mL | Cmax [2, 4]: 1060 ± 130 ng/mL | T ½ [2, 4]: 2.22 ± 0.233 h | maximum plasma concentration [2, 5]: approximately 3.6 μg/mL | time of maximum plasma concentration [2, 5]: 2 h
